IC50 data for one compound are collected here from ChEMBL document CHEMBL3638794, “Indazole compounds useful as ketohexokinase inhibitors” (2014).

In the assay the target is T1, Ketohexokinase (Homo sapiens, UniProt P50053).
T1 sequence (P50053 whole entry): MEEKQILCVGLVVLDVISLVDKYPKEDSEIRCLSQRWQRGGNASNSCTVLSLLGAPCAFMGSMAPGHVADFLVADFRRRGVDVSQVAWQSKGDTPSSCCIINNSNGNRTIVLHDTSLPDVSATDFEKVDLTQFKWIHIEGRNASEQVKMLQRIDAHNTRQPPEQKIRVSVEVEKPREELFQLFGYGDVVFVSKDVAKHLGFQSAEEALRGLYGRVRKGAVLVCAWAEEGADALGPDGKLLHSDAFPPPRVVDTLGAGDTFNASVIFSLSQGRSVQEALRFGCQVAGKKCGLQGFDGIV
As to the kind of experiment: Enzyme Assay: An enzymatic assay was developed to measure KHK-mediated conversion of D-fructose to Fructose-1-P (F-1-P) using High Throughput Mass Spectroscopy (HTMS) as a means of product detection. […] The assay was carried out in 384-well plate format.

Structures are written as SMILES.

As a reminder, the IC50 is the concentration that gives 50% inhibition. Read a high IC50 as weaker potency in that assay. With `CSc1nn(-c2ccc(Br)cc2)c2cc(OC3CCNCC3)ccc12`, the IC50 was found to be 2050 nM.
